# In US20110105509A1 (Wyeth, LLC, priority 2009, published 2011):
# Target: T1, CRTH2 (Homo sapiens, UniProt Q9Y5Y4)
# T1 construct: expressed in transfected cells; host or cells: CHO cells
# T1 sequence (Q9Y5Y4 1-395): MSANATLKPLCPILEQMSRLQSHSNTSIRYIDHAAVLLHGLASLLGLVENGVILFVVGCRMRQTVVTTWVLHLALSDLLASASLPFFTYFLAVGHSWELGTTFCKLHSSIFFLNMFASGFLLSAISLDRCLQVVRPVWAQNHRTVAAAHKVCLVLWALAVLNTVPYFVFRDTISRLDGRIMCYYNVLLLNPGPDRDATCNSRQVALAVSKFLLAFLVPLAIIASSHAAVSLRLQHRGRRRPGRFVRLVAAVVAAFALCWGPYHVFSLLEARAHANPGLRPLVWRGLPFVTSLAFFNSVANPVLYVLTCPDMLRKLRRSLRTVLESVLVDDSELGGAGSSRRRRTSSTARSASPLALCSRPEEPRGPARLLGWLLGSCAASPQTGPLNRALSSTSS
# Experiment: FRET based competitive immunoassay (cAMP) in CRTH2 expressing CHO cells
# Type: cell-based
# Conditions: CRTH2 expressing CHO cells incubated with forskolin and PGD2; Eu3+ cryptate-labeled anti-cAMP and d2-labeled cAMP
# Method: FRET Assay: To evaluate potency compounds were tested in a FRET based competitive immunoassay in which CRTH2 expressing CHO cells were incubated in the presence of forskolin and PGD2 along with Eu3+ cryptate-labeled anti-cAMP and d2-labeled cAMP.
row,IC50,SMILES
1,55 nM,"Cc1c(-c2ccc(=O)n(Cc3cccc(F)c3C(F)(F)F)n2)c2cc(Cl)ccc2n1CC(=O)O [Example 143, 2-(5-chloro-3-(1-(3-fluoro-2-(trifluoromethyl)benzyl)-6-oxo-1,6-dihydro-pyridazin-3-yl)-2-methyl-1H-indol-1-yl)acetic acid]"
2,11 nM,"Cc1c(-c2ccc(=O)n(Cc3ccc4ccccc4n3)n2)c2cc(Cl)ccc2n1CC(=O)O [Example 144, 2-(5-chloro-2-methyl-3-(6-oxo-1-(quinolin-2-ylmethyl)-1,6-dihydro-pyridazin-3-yl)-1H-indol-1-yl)acetic acid]"
3,144 nM,"Cc1cc(Cn2nc(-c3c(C)n(CC(=O)O)c4ccc(Cl)cc34)ccc2=O)c2ccccc2n1 [Example 145, 2-(5-chloro-2-methyl-3-(1-((2-methylquinolin-4-yl)methyl)-6-oxo-1,6-dihydropyridazin-3-yl)-1H-indol-1-yl)acetic acid]"
4,74 nM,"Cc1ccc(Cn2nc(-c3c(C)n(CC(=O)O)c4ccc(Cl)cc34)ccc2=O)cc1 [Example 146, 2-(5-chloro-2-methyl-3-(1-(4-methylbenzyl)-6-oxo-1,6-dihydropyridazin-3-yl)-1H-indol-1-yl)acetic acid]"
5,334 nM,"Cc1c(-c2ccc(=O)n(Cc3ccc(C(C)C)cc3)n2)c2cc(Cl)ccc2n1CC(=O)O [Example 147, 2-(5-chloro-3-(1-(4-isopropylbenzyl)-6-oxo-1,6-dihydropyridazin-3-yl)-2-methyl-1H-indol-1-yl)acetic acid]"
6,42 nM,"COc1ccc(Cn2nc(-c3c(C)n(CC(=O)O)c4ccc(Cl)cc34)ccc2=O)cc1 [Example 148, 2-(5-chloro-3-(1-(4-methoxybenzyl)-6-oxo-1,6-dihydropyridazin-3-yl)-2-methyl-1H-indol-1-yl)acetic acid]"
7,2150 nM,"Cc1c(-c2ccc(=O)n(C)n2)c2cc(Cl)ccc2n1CC(=O)O [Example 149, 2-(5-chloro-2-methyl-3-(1-methyl-6-oxo-1,6-dihydropyridazin-3-yl)-1H-indol-1-yl)acetic acid]"
8,559 nM,"CCn1nc(-c2c(C)n(CC(=O)O)c3ccc(Cl)cc23)ccc1=O [Example 150, 2-(5-chloro-3-(1-ethyl-6-oxo-1,6-dihydropyridazin-3-yl)-2-methyl-1H-indol-1-yl)acetic acid]"
9,12 nM,"Cc1c(-c2ccc(=O)n(CCOc3ccc(Cl)cc3)n2)c2cc(F)ccc2n1CC(=O)O [Example 152, 2-(3-(1-(2-(4-chlorophenoxy)ethyl)-6-oxo-1,6-dihydropyridazin-3-yl)-5-fluoro-2-methyl-1H-indol-1-yl)acetic acid]"
10,25 nM,"Cc1c(-c2ccc(=O)n(Cc3nc4ccccc4s3)n2)c2cc(F)ccc2n1CC(=O)O [Example 153, 2-(3-(1-(benzo[d]thiazol-2-ylmethyl)-6-oxo-1,6-dihydropyridazin-3-yl)-5-fluoro-2-methyl-1H-indol-1-yl)acetic acid]"
11,30 nM,"Cc1c(-c2ccc(=O)n(Cc3cccc(F)c3)n2)c2cc(F)ccc2n1CC(=O)O [Example 154, 2-(5-Fluoro-3-(1-(3-fluorobenzyl)-6-oxo-1,6-dihydropyridazin-3-yl)-2-methyl-1H-indol-1-yl)acetic acid]"
12,25 nM,"Cc1c(-c2ccc(=O)n(Cc3cccc(F)c3C(F)(F)F)n2)c2cc(F)ccc2n1CC(=O)O [Example 156, 2-(5-fluoro-3-(1-(3-fluoro-2-(trifluoromethyl)benzyl)-6-oxo-1,6-dihydro-pyridazin-3-yl)-2-methyl-1H-indol-1-yl)acetic acid]"
13,57 nM,"Cc1c(-c2ccc(=O)n(Cc3ccc4ccccc4n3)n2)c2cc(F)ccc2n1CC(=O)O [Example 157, 2-(5-fluoro-2-methyl-3-(6-oxo-1-(quinolin-2-ylmethyl)-1,6-dihydro-pyridazin-3-yl)-1H-indol-1-yl)acetic acid]"
14,73 nM,"Cc1cc(Cn2nc(-c3c(C)n(CC(=O)O)c4ccc(F)cc34)ccc2=O)c2ccccc2n1 [Example 158, 2-(5-fluoro-2-methyl-3-(1-((2-methylquinolin-4-yl)methyl)-6-oxo-1,6-dihydro-pyridazin-3-yl)-1H-indol-1-yl)acetic acid]"
15,2490 nM,"Cc1c(-c2ccc(=O)n(C)n2)c2cc(F)ccc2n1CC(=O)O [Example 159, 2-(5-fluoro-2-methyl-3-(1-methyl-6-oxo-1,6-dihydropyridazin-3-yl)-1H-indol-1-yl)acetic acid]"
16,375 nM,"CCn1nc(-c2c(C)n(CC(=O)O)c3ccc(F)cc23)ccc1=O [Example 160, 2-(3-(1-ethyl-6-oxo-1,6-dihydropyridazin-3-yl)-5-fluoro-2-methyl-1H-indol-1-yl)acetic acid]"
17,23 nM,"Cc1c(-c2ccc(=O)n(CC3CC3)n2)c2cc(F)ccc2n1CC(=O)O [Example 161, 2-(3-(1-(cyclopropylmethyl)-6-oxo-1,6-dihydropyridazin-3-yl)-5-fluoro-2-methyl-1H-indol-1-yl)acetic acid]"
18,462 nM,"Cc1c(-c2ccc(=O)n(CC(F)(F)F)n2)c2cc(F)ccc2n1CC(=O)O [Example 162, 2-(5-Fluoro-2-methyl-3-(6-oxo-1-(2,2,2-trifluoroethyl)-1,6-dihydropyridazin-3-yl)-1H-indol-1-yl)acetic acid]"
19,865 nM,"Cc1c(-c2ccc(=O)n(CCCC(F)(F)F)n2)c2cc(F)ccc2n1CC(=O)O [Example 163, 2-(5-fluoro-2-methyl-3-(6-oxo-1-(4,4,4-trifluorobutyl)-1,6-dihydropyridazin-3-yl)-1H-indol-1-yl)acetic acid]"
20,409 nM,"Cc1c(-c2ccc(=O)n(CCC(F)(F)F)n2)c2cc(F)ccc2n1CC(=O)O [Example 164, 2-(5-fluoro-2-methyl-3-(6-oxo-1-(3,3,3-trifluoropropyl)-1,6-dihydro-pyridazin-3-yl)-1H-indol-1-yl)acetic acid]"
21,> 1000 nM,"Cc1c(-c2ccc(=O)n(CC(C)(C)C)n2)c2cc(F)ccc2n1CC(=O)O [Example 165, 2-(5-fluoro-2-methyl-3-(1-neopentyl-6-oxo-1,6-dihydropyridazin-3-yl)-1H-indol-1-yl)acetic acid]"
22,14 nM,"Cc1c(-c2nn(Cc3nc4ccccc4s3)c(=O)c3ccccc23)c2ccccc2n1CC(=O)O [Example 167, 2-(3-(3-(benzo[d]thiazol-2-ylmethyl)-4-oxo-3,4-dihydrophthalazin-1-yl)-2-methyl-1H-indol-1-yl)acetic acid]"
23,62 nM,"Cc1c(-c2nn(Cc3ccc(S(C)(=O)=O)cc3)c(=O)c3ccccc23)c2ccccc2n1CC(=O)O [Example 168, 2-(2-methyl-3-(3-(4-(methylsulfonyl)benzyl)-4-oxo-3,4-dihydrophthalazin-1-yl)-1H-indol-1-yl)acetic acid]"
24,14 nM,"Cc1c(-c2nn(Cc3ccc4ccccc4n3)c(=O)c3ccccc23)c2ccccc2n1CC(=O)O [Example 169, 2-(2-methyl-3-(4-oxo-3-(quinolin-2-ylmethyl)-3,4-dihydrophthalazin-1-yl)-1H-indol-1-yl)acetic acid]"
25,25 nM,"Cc1c(-c2nn(Cc3ccc(OC(F)(F)F)cc3)c(=O)c3ccccc23)c2ccccc2n1CC(=O)O [Example 170, 2-(2-methyl-3-(4-oxo-3-(4-(trifluoromethoxy)benzyl)-3,4-dihydrophthalazin-1-yl)-1H-indol-1-yl)acetic acid]"
